Consider one compound from US6552000B2, “Anticonvulsant derivatives useful in treating autism” (Ortho-McNeil Pharmaceutical, Inc., priority 1999, dated 2003).

Assay [1] deals with simple and complex partial seizures and secondarily generalized seizures. The note with it: clinical trials of human epilepsy; adjunctive therapy or monotherapy; cited from earlier work.
Another assay has as its system seizures. The note with it: several rodent models of epilepsy; cited from earlier work.
For the next assay, the system named is partial onset seizures. The assay can be described thus: placebo controlled, add on trials in partial onset seizures. It counts as in vivo. The note with it: adults and children with partial onset seizures. The text has this: There is also known enhancement of GABA activity in the brain along with reduced glutamate receptor activity. Accordingly, compounds of formula I are useful in the treatment of autism.

Another assay concerns kindled epilepsy. The note with it: animal model of kindled epilepsy; cited from earlier work.

On to `CC1(C)O[C@@H]2[C@@H](CO[C@@]3(COS(N)(=O)=O)OC(C)(C)O[C@@H]23)O1` [topiramate, 2,3:4,5-bis-O-(1-methylethylidene)-β-D-fructopyranose sulfamate], for which, in assay [1], the “efficacy in treating simple and complex partial seizures and secondarily generalized seizures” value is on record as “effective”. The block of seizures result in the assay with seizures and in the assay on kindled epilepsy was “effectively block seizures” throughout. In the assay with partial onset seizures, the “reduction of seizure rate versus placebo” value is “statistically significant reduction of seizure rate”.
